Our source for the IC50 values is patent publication US20230416202A1, “Small Molecule Compounds and Compositions” (Telo Therapeutics, Inc., priority 2020, published 2023).

The subject of the experiment is Mutant TERT. In words: HepG2 hTERT mRNA assay (qPCR). It counts as cell-based, human. The settings on record: Homo sapiens; HepG2 cells (mutated TERT), 48 hours, TERT mRNA via qPCR. Here is the method:
HepG2 cells (hepatocyte carcinoma (HCC) cells; with mutated TERT) or HEK293T cells (with wild type (wt) TERT) were seeded at 4,000 cells/well in 96-well plates. The following day, test compounds were added to cells for at concentrations of 25 uM, 12.5 uM, 6.25 uM, 3.125 uM, 1.563 uM, 0.781 uM, 0.391 uM, 0.195 uM, 0.098 uM or vehicle control (0.1% DMSO). Each condition was tested in three replicate wells. 48 hours post drug addition, the cells were harvested for RNA using the 96-Magmax RNA Isolation kit (Cat. No. AM1830). RNA was converted to cDNA using the Superscript III First strand cDNA synthesis kit (Cat. No. 18080051). RNA and cDNA concentration and quality were determined using the NanoQuant nucleic acid quantification method. 500 ng cDNA from each sample was used to detect TERT mRNA via qPCR. GUSB was also measured as an internal control and fold change to vehicle control was determined using the delta CT method.

The structures appear in SMILES notation.

One may read the IC50 as the concentration that gives 50% inhibition. Higher therefore signals weaker potency. For the compound `O=C(O)C[C@H]1C[C@H](c2ccc(C(F)(F)F)cc2)CN(Cc2ccc(C(F)(F)F)cc2F)C1` (racemic) [Compound 128, Anti-2-(1-(2-fluoro-4-(trifluoromethyl)benzyl)-5-(4-(trifluoromethyl)phenyl)piperidin-3-yl)acetic acid], the IC50 fell in the range of 0.5 to 5 µM. The result for `O=C(O)CC[C@H]1C[C@H](c2ccc(C(F)(F)F)cc2)CN(Cc2ccc(C(F)(F)F)cc2)C1` [Compound 126, Anti-3-(1-(4-(trifluoromethyl)benzyl)-5-(4-(trifluoromethyl)phenyl)piperidin-3-yl)propanoic acid] reads 0.5 to 5 µM.

For `O=C(O)C[C@H]1C[C@H](CCc2ccc(C(F)(F)F)cc2)CN(Cc2ccc(C(F)(F)F)cc2)C1` (racemic) [Compound 133, Anti-2-(1-(4-(trifluoromethyl)benzyl)-5-(4-(trifluoromethyl)phenethyl)piperidin-3-yl)acetic acid], the IC50 lay within 0.5 to 5 µM. The value for `O=C(O)C[C@H]1C[C@H](c2ccc(C(F)(F)F)cc2)CN(Cc2ccc(C(F)(F)F)cc2Cl)C1` (racemic) [Compound 131, Anti-2-(-1-(2-chloro-4-(trifluoromethyl)benzyl)-5-(4-(trifluoromethyl)phenyl)piperidin-3-yl)acetic acid] was 0.5 to 5 µM. The value for `O=C(O)C[C@@H]1C[C@@H](c2ccc(C(F)(F)F)cc2)CN(Cc2ccc(Cl)cc2)C1` [Compound 116, 2-((3S,5S)-1-(4-chlorobenzyl)-5-(4-(trifluoromethyl)phenyl)piperidin-3-yl)acetic acid] was 0.5 to 5 µM; that for `N#Cc1cccc([C@H]2C[C@H](CC(=O)O)CN(Cc3ccc(C(F)(F)F)cc3)C2)c1` (racemic) [Compound 127, anti-2-(5-(3-cyanophenyl)1-(4-(trifluoromethyl)benzyl)piperidin-3-yl)acetic acid] was 0.5 to 5 µM; that for `C#Cc1ccc([C@H]2C[C@H](CC(=O)O)CN(Cc3ccc(N=[N+]=[N-])cc3)C2)cc1` (racemic) [Compound 137, Anti-2-(1-(4-azidobenzyl)-5-(4-ethynylphenyl)piperidin-3-yl)acetic acid] was 0.5 to 5 µM. The result for `O=C(O)C[C@H]1C[C@H](c2ccc(C(F)(F)F)cc2)CN(Cc2ccc(C(F)(F)F)c(F)c2)C1` (racemic) [Compound 130, Anti-2-(1-(3-fluoro-4-(trifluoromethyl)benzyl)-5-(4-(trifluoromethyl)phenyl)piperidin-3-yl)acetic acid] reads 0.5 to 5 µM; that for `CS(=O)(=O)c1ccc(CN2C[C@H](CC(=O)O)C[C@@H](c3ccc(C(F)(F)F)cc3)C2)cc1` [Compound 120, 2-((3S,5S)-1-(4-(methylsulfonyl)benzyl)-5-(4-(trifluoromethyl)phenyl)piperidin-3-yl)acetic acid], 0.5 to 5 µM; that for `O=C(O)C[C@H]1C[C@H](c2ccc(F)c(F)c2)CN(Cc2ccc(C(F)(F)F)cc2)C1` (racemic) [Compound 121, Anti-2-(-5-(3,4-difluorophenyl)-1-(4-(trifluoromethyl)benzyl)piperidin-3-yl)acetic acid], 0.5 to 5 µM.

On to `[N-]=[N+]=NCc1ccc(CN2C[C@H](CC(=O)O)C[C@@H](c3ccc(N=[N+]=[N-])cc3)C2)cc1` (single isomer, unassigned) [Compound 145], for which the IC50 lay within 0.5 to 5 µM. The result for `O=C(O)C[C@H]1C[C@H](c2cccc(Cl)c2)CN(Cc2ccc(C(F)(F)F)cc2)C1` (racemic) [Compound 143, Anti-2-(5-(3-chlorophenyl)-1-(4-(trifluoromethyl)benzyl)piperidin-3-yl)acetic acid] reads 5 to 25 µM; that for `O=C(O)C[C@@H]1C[C@@H](c2ccc(Cl)cc2)CN(Cc2ccc(C(F)(F)F)cc2)C1` (single isomer, unassigned) [Compound 142], less than 0.5 µM. The value for `O=C(O)C[C@H]1C[C@H](c2ccc(Cl)cc2)CN(Cc2ccc(Cl)cc2)C1` (racemic) [Compound 135, Anti-2-(1-(4-chlorobenzyl)-5-(4-chlorophenyl)piperidin-3-yl)acetic acid] was less than 0.5 µM.
